Measured values reported in paper PMC8476547, “Epigenetic derepression converts PPARγ into a druggable target in triple-negative and endocrine-resistant breast cancers” (Cell Death Discovery, 2021).

Key:
[1] = test system: luciferase-labeled, triple-negative MDA-MB-231 cells; assay: Orthotopic mammary fat pad xenograft, bioluminescent tumor burden; assay type: in vivo, mouse; conditions: day 28; LBH589 2.5 mg/kg, rosiglitazone 10 mg/kg or both, i.p. five days per week for four weeks; control 9.9 ± 6.2
Description: Female NCr nude mice (CrTac:NCr-Foxn1nu) aged 7 weeks were purchased from InVivos, Singapore. […] Mice were acclimatized to laboratory conditions for a minimum of 3 days prior to study initiation. All surgical procedures were performed under strict aseptic conditions according to the protocol approved by the SingHealth Institutional Animal Care and Use Committee (IACUC). […] A 1-cm incision was made at the abdominal mammary fat pad area. […] The incision was closed with wound clips (Stoelting Co, USA). To relieve post-surgical pain and prevent dehydration following surgery, 1 ml of 2 mg/ml meloxicam (Troy Ilium, Australia), diluted in 0.9% saline (B. Braun, Germany) was administered subcutaneously at the right flank of mice after surgery. Mice were recovered on a heating pad until fully awake from anesthesia before being returned to cages. Tumor growth was screened by imaging from the ventral view using the Xenogen IVIS system (Caliper Life Sciences, CA, USA). […] Bioluminescent signals around the tumor sites were identified and quantified as total photon counts using Living Image 4.2 software (Xenogen). […] The bodyweight of mice was measured prior to drug administration. Tumor growth was monitored twice a week using the Xenogen IVIS system throughout the entire 28 days of treatment. […]

[2] = Cellular IC50 of LBH589; assay type: cell-based
[3] = test system: MDA-MB-231 CAM tumor; assay: Chick chorioallantoic membrane (CAM) tumor vascularization, ultrasound imaging; assay type: in vivo; conditions: single treatments, 48 h
Description: On Embryonic Day 3, a sharp weighted tool was used to poke a hole at the apex of the eggshell, and 3 mL of albumin was removed using a 5 ml syringe and 18G needle in order to drop the chick chorioallantoic membrane (CAM). The sharp-weighted tool was then used to poke a hole in the middle of the egg before using curved scissors to cut a 1cm2 hole. The eggs were screened, and dead embryos were removed.
On Embryonic Day 7, MDA-MB-231 cells were prepared for inoculation onto the CAM. DMEM was aspirated, cells were washed with PBS before the addition of 1 ml of 2.5 g/l Trypsin/EDTA solution onto the culture dish. The cells were then removed into a 15 ml Falcon tube and centrifuged for 3 min at 1200 rpm, before the supernatant was removed. Matrigel was added to the cell pellet on ice to resuspend the pellet, before the addition of 2 × 10^6 cells in a 50 µl of Matrigel-cell mixture onto CAM. […]
On Embryonic Day 10, the Tegaderm membrane was removed and Aquasonic gel was added onto the cling wrap which was carefully placed over the CAM. […] Tumor volumes and percentage vasculature were calculated by the Vevo Lab 1.7.0 programme.
Twenty microliters of single or combination treatments of LBH589 and rosiglitazone were added onto a 3.5 mm diameter autoclaved filter paper placed next to the formed tumor on the CAM. […] Percentage changes were calculated based on before and after drug treatment.

[4] = test system: PPARγ; assay: PPRE-luciferase reporter assay (PPARγ activity); assay type: cell-based, human; conditions: MCF7, T47D, MDA-MB-231 and BT549 cells; 0, 50, 100 nM LBH589, 16 h
Excerpt: We took advantage of the fact that downstream genes targeted by this transcription factor contain peroxisome proliferator response elements (PPRE), where it binds. […] To provide assurance that the enhanced bioluminescence is attributable to PPARγ receptor activation rather than some off-target consequence of pan-HDAC inhibition, we repeated the luciferase assays but modified the experiments to eliminate the contribution of PPARγ (Supplementary Results: Part S2).

[5] = test system: PPARγ; assay: Immunoprecipitation of FLAG-tagged PPARγ, acetyl-lysine immunoblot; assay type: cell-based, human; conditions: MCF7 cells, 50 nM LBH589, first hour; overall FLAG-tagged PPARγ unchanged
Description: For detection of acetylation of PPARγ, immunoprecipitation with PPARγ was performed. Cells were seeded at […] density and transfected with FLAG-tagged PPARγ before treatment with LBH589. Cells were harvested and cell pellets were lysed in immunoprecipitation (IP) lysis buffer (pH 8). Two hundred and fifty micrograms of proteins were pre-cleared with magnetic G beads (Millipore, Bedford, MA) for 1 h before rotating with 1 μg of FLAG antibody or normal rabbit IgG overnight at 4 °C. Magnetic G beads were added to the mixture the next day and rotated for 1.5 h. Magnetic-enriched IP samples were washed four times in cold wash buffer (200 mM Tris [pH 8.0], 100 mM NaCl, 0.5% NP-40, 2 mM DTT, 0.5 mM PMSF, 1 mM sodium orthovanadate, 1 μg/ml leupeptin, and 1 μg/ml aprotinin) at 10 min intervals. Samples were then boiled in 5× SDS loading buffer and subjected to SDS-PAGE. Proteins were then transferred to PVDF membranes and detected for acetyl-lysine.

[6] = test system: PPARγ; assay: PPARγ mRNA and protein expression (RT-PCR, western blot); assay type: cell-based, human; conditions: MCF7 and MDA-MB-231, 50 nM LBH589, from the 3 h mark to 18 h
Description: Total RNA was isolated from cells using TRIZOL reagent (Invitrogen, Carlsbad, CA, USA), as described in the manufacturer’s instructions with a DNAse treatment step incorporated into the protocol. Each RT reaction contained 2.5 µg of total RNA, 1× RT buffer, 5 mM MgCl2, 425 µM each of dNTPs, 2 µM random hexamers, 0.35U/µl RNase inhibitor, and 1.1U/µl MultiScribe™ reverse transcriptase and made up to 10 µl with sterile water. The RT reaction was carried out at 37 °C for 1 h. Five microlitres of the 10 µl cDNA reaction volume were used in real-time quantitative PCR using ABI PRISM 7500 (Applied Biosystems, Foster City, CA, USA). Normalization was endogenous 18S. Fluorescence was measured with the Sequence Detection Systems 2.0 software. PCR was performed in multiplex (both target and endogenous control co-amplified in the same reaction) with distinct fluorescent dyes. Primers and probes for human 18S, human PPARγ, BIRC5, CyclinD1, VEGFA, and MnSOD were purchased from Applied Biosystems (Assays on Demand).

[7] = test system: ERα; assay: ERα receptor expression (western blot); assay type: cell-based, human; conditions: ER-positive cell lines MCF7 and T47D
[8] = mouse, in vivo, ip, 7.5 mg/kg
Description: (§1) A total of 39 mice were randomly assigned to 5 treatment groups with at least 7 animals in each group. Mice were treated with vehicle (10% DMSO), 2.5 mg/kg or 7.5 mg/kg of LBH589, 10 mg/kg, or 20 mg/kg of Rosiglitazone via i.p. injection five days per week. The animals were evaluated for changes in clinical signs (stooling, activity level, and body weight). Bodyweight was measured prior to dosing and mice were monitored regularly for any signs of distress after drug administration. All mice were humanely euthanized after 24 days.

[9] = test system: untransformed human breast epithelial cell lines MCF10A and MCF12A; assay: PPARγ expression, activity and cell viability in normal breast epithelial cells; conditions: 0, 50, 100 nM LBH589, 24 h
Description: Whole-cell lysates were prepared with RIPA lysis buffer containing 10 mM Tris-HCL pH7.4, 30 mM NaCl, 1 mM EDTA, 1% Nonidet P-40, supplemented with 1 mM sodium orthovanadate (Na3VO4), 1 µg/ml leupeptin, 1 µg/ml pepstatin A, 1 µg/ml aprotinin, and 1 mM PMSF before use. […] Thereafter, proteins were transferred onto nitrocellulose membranes, blocked for 1 h at room temperature with 5% non-fat milk, and incubated overnight at 4 °C with the primary antibody. After probing with a secondary antibody for 1 h at 25 °C, protein bands were detected by using the Supersignal West Pico Chemiluminescent substrate kit. β-actin antibody was used as a loading control.
The luciferase reporter construct used was pPPRE-tk-Luc, which contains three PPREs from the rat acyl-CoA oxidase promoter under the control of the Herpes simplex virus thymidine kinase promoter (kind gift from Dr. Ronald M. Evans, The Salk Institute for Biological Studies, San Diego, CA, USA). 3× PPRE promoter activities were assessed with a dual-luciferase assay kit. […] Ten microlitres of cell lysate were then added to 50 μl of the luciferase substrate solution, following which 50 μl of stop and glow buffer was added for Renilla reading. Bioluminescence generated was measured using a Sirius luminometer (Berthold, Munich, Germany). The luminescence readings obtained were normalized to the protein content of the corresponding cell lysate. […]

[10] = Toxicity study in NCr nude mice; conditions: LBH589 2.5 or 7.5 mg/kg, rosiglitazone 10 or 20 mg/kg, i.p. five days per week, three-week cycle
Description: as §1

IC50 [2] [nM] | PPRE-luciferase reporter activity [4] | clinical signs (weight gain, stooling) compared to lower dosage or placebo [8] | SMILES | relative tumor burden (fold change in bioluminescent signal normalized to pre-treatment radiance levels) [1] [fold] | CAM tumor volume / tumor size compared to DMSO control [3] | changes in CAM vascular volumes compared to DMSO [3] | acetylated PPARγ [5] | intracellular PPARγ mRNA and protein [6] | ERα receptor expression [7] | PPARγ expression and activity [9] | loss of original bodyweight [10] [%]
50 | dose-dependently enhanced | less weight gain and softer stools | Cc1[nH]c2ccccc2c1CCNCc1ccc(/C=C/C(=O)NO)cc1 [LBH589] | 5.8 ± 3.7 | did not have any significant effects | No significant changes | marked initial accumulation | steady and gradual rise | dose-dependently suppressed | did not upregulate PPARγ expression or augment its activity | 
 |  |  | CN(CCOc1ccc(CC2SC(=O)NC2=O)cc1)c1ccccn1 (stereo not drawn) [rosiglitazone] | 5.3 ± 0.8 |  |  |  |  |  |  | ≤ 10
